Measured values as given in paper PMC8395040 (International Journal of Molecular Sciences, 2021).

Key:
[1] = test system: Gli1 mRNA in WT MEFs stimulated with SAG; assay: Gli1 mRNA (qRT-PCR) in SAG-stimulated WT MEFs; assay type: cell-based, mouse; conditions: 10 µM, SAG 200 nM, 24 h
human WT SMO = biological target: T1, human WT SMO (Homo sapiens, UniProt Q99835); assay: BODIPY-cyclopamine displacement assay, WT SMO; conditions: HEK293T transfected with WT SMO, BC 5 nM; read-out: IC50 for binding to WT SMO (BC displacement)
T1 construct: Myc-DDK; expressed in transfected cells; host or cells: HEK293T
T1 sequence (Q99835 28-787): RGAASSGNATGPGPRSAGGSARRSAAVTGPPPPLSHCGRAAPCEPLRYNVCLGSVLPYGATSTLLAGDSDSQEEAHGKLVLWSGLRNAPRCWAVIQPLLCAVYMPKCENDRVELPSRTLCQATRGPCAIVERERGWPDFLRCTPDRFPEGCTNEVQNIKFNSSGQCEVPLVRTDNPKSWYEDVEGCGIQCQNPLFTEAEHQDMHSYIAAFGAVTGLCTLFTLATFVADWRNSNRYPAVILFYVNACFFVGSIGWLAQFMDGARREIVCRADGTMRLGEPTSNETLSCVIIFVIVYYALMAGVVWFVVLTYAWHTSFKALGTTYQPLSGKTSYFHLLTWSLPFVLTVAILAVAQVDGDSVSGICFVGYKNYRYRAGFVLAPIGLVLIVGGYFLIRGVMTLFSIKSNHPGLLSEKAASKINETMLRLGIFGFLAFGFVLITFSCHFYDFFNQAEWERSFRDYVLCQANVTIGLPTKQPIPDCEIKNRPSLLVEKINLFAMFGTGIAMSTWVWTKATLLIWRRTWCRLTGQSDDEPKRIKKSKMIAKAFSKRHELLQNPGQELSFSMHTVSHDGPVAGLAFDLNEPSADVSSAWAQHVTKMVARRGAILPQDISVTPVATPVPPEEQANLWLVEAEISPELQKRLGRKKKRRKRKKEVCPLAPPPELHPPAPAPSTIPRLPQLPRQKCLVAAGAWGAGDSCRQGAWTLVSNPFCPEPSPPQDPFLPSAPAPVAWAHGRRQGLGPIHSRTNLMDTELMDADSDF
Method: HEK293T cells were transfected with genes encoding human WT SMO tagged with Myc-DDK or human SMO D473H mutant tagged with Myc. Cells were washed in PBS supplemented with 0.5% FBS, fixed in 4% paraformaldehyde in PBS for 10 min, and incubated for 6 h at 37 °C in the same medium supplemented with BODIPY-cyclopamine (5 nM), with and without 4s at different concentrations ([…]). The cells were permeabilised with 0.2% Triton X-100 (Sigma, St. Louis, MO, USA). Dako Fluorescent Mounting solution (Dako, Carpinteria, CA, USA) was used as mounting medium and the Hoechst reagent for staining of cell nuclei. BODIPY (green) and Hoechst (blue) signals were analysed in three representative fields per coverslip (×20 magnification). Data were expressed as the percentage of BC incorporation observed with BC alone.

[2] = test system: cancer cell lines (HH-dependent and HH-independent); assay: Annexin V-FITC/PI dose-response, cancer cell lines; assay type: cell-based, human; conditions: 1.5–50 µM, 72 h
Method: Apoptosis plays a major role in maintaining the homeostasis of cells. Cellular shrinkage and DNA fragmentation at the molecular level are characteristics acquired during apoptosis. Therefore, we performed flow cytometric analysis to determine if 4s could induce apoptosis in tumour cell lines. To this end, 4s-treated cells were stained with Annexin V-FITC and/or PI and analysed by flow cytometry. Dose–response effects were assessed using 4s at concentrations under 50 µM (1.5, 3.0, 6.25, 19, 25 and 50 µM) for 72 h.
Supplemental Figure S1: 4s triggers apoptosis in various cancer cell lines. A)
Dose-response curves are shown for four neoplastic cancer cell lines and HEK293 cells as a control. Cells were treated with 4s […]
stained with annexin V-FITC and propidium iodide (PI) and analyzed by flow cytometry.
Results are presented as the mean ± SD of three independent experiments. (***) p <
0.0001 vs. control. Data were analyzed with a non-parametric t-test. B) Representative dot plot of HT29 cells untreated (control) or treated for 3 h with 4s (19 µM ). […]

B16F10 cells = assay: MTS viability assay, B16F10; assay type: cell-based, murine; conditions: Mus musculus, B16-F10, 24 h
Method: In the case of experiments using nanoemulsions, cell proliferation was evaluated after treatments. To do this the complete medium containing treatments was removed and replaced with fresh culture medium supplemented with 10% tetrazolium compound of the MTS® assay (CellTiter 96® Aqueous Non-Radioactive Cell Proliferation Assay), according to the manufacturer’s instructions (Promega, Madison, WI, USA). The soluble formazan produced by live cells was detected as absorbance at 490 nm on a Multiscan Reader (Synergy-H4, Biotek). Background values contributed by excess of cell debris and bubbles were measured at 650 nm and were subtracted.
Figure 7 Effect of 4s-NEM on the viability of cancer (B16F10) and non-cancer (HEK293) cells in vitro. Cells were treated with 4s-NEM at different concentrations for 24 h and their viability was evaluated using the MTS assay; SDS, the vehicle for NEM, and 4s free in the culture medium were used as controls. The IC50 was determined in each case. (A) Effect of 4s-NEM on B16F10 cells. Six independent experiments were performed in triplicate. Results are shown as the mean ± SEM. (B) Effect of 4s-NEM on HEK293 cells. Results are shown as the mean ± SEM of three separate experiments. (***) p < 0.001, (*) p < 0.05 vs. control, ns = non-significant. Data analysis was performed via a 2-way ANOVA Tukey’s multiple comparisons test.

HCT116 = assay: Colony formation assay, HCT116; assay type: cell-based, human; conditions: 5 µM, 14 d
Method: HT29, HCT116, H1975 and HEK293 cells were seeded in a 6-well plate (1 × 10^4 cells per well) and incubated overnight in DMEM F12 supplemented with 10% FBS. […] After 72 h, the medium was replaced by fresh medium without stimuli, and cells were incubated for an additional 14 d to permit colony formation. The cells were fixed during 30 min with PFA 4% (v/v), washed and stained for 30 min at RT with a 5% solution of violet crystal for final colony counting. Three independent replicates were performed.

Solubility in water = assay type: physicochemical
HT29 cells = assay: Annexin V-FITC/PI assay, HT29; assay type: cell-based, human; conditions: for early apoptosis (II): 19 µM, 3 or 12 h, untreated control 2.7%
Method: HT29 cells were seeded in a 12-well plate (5 × 10^5 cells per well) and incubated overnight in DMEM F12. […] The cells were collected and then processed for apoptosis analysis using the Annexin-V/PI Alexa Fluor 488 Apoptosis Kit (Invitrogen, Waltham, MA, USA) according to the manufacturer’s instructions. Finally, cells were analysed by flow cytometry (BD; FACS Canto II, Mountain View, CA, USA) and data were processed using the FCS Express v6 software. Three independent replicates were performed.

HEK293 [3] = assay: Cell cycle analysis (PI, flow cytometry), HEK293; assay type: cell-based, human; conditions: 19 µM, 24 h
Method: HT29 and HEK293 cells were plated in 6-well plates at a density of 2.0 × 10^5 cells/1.5 mL/well and grown overnight at 37 °C in a 5% CO2 humidified atmosphere. […] Aliquots of cells were collected, pelleted, washed, and fixed with ethanol (70% v/v) for at least 30 min at 4 °C. Cells were resuspended twice in PBS and, after centrifugation and elimination of the supernatant, they were finally resuspended in a PBS solution containing propidium iodide (PI; […], Invitrogen), RNase A ([…], Invitrogen). After a final incubation for 1 h in the dark at 37 °C, the PI signal was measured using a FACS Canto II Flow-cytometer (BD; Mountain View, CA) with a 488 nm excitation laser, captured and FACS DIVA was used as the acquisition software. The percentage of cells in each phase was analysed using the FCS Express v6 software. Two independent biological replicates were performed.

[4] = MTT cytotoxicity assay, HEK293 control cells; assay type: cell-based, human; conditions: human, HEK293 cells; 50 µM, 72 h, MTT;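 also: Read-out is formazan absorbance at 570 nm from MTT reduction in 96-well plates, with three independent biological replicates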
Method: (§1) Briefly, cancer cell lines were plated in flat-bottom 96-well plates at a cell concentration of 5 × 10^3 cells/well for the fastest growing lines, such as HEK293 and HT29 cells and 1 × 10^4 cells/well for more slowly growing lines, such as HCT116, H1975, BxPC-3, AsPC-1, B16-F10 and DAOY. Then, cells were incubated with the synthesised compounds at different concentrations (from 0.05 to 50 µM) in 200 µL with 10% FBS in RPMI 1640 or DMEM F12 culture medium at 37 °C for 72 h. Later, 10 µL of MTT were added at a final concentration of 0.5 mg/mL, incubated at 37 °C for 4 h, and then solubilised with 10% sodium dodecyl sulphate (SDS) in 0.1 mM HCl and incubated overnight at 37 °C. Formazan formation was measured at 570 nm in a multiwell plate reader (Cytation 5, Biotek Instruments, Winooski, VT, USA). Three independent biological replicates were performed.

HEK293 [5] = assay: MTT cytotoxicity assay, HEK293 control cells; assay type: cell-based, human; conditions: for IC50: Homo sapiens, HEK293, MTT, 72 h, non-cancer cell line;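 as to all read-outs here: Read-out is formazan absorbance at 570 nm from MTT reduction in 96-well plates, with three independent biological replicates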
Method: as §1

pancreatic cancer cells = test system: pancreatic cancer cells; set-up: method as in PMID 28490735; conditions: cited from earlier work

Compound | Gli-1 expression in WT MEF cells stimulated with SAG [1] | IC50 (human WT SMO) [µM] | induction of apoptosis [2] | IC50 (B16F10 cells) [µM] | colony formation HCT116 (HCT116) | solubility in water (Solubility in water) | early apoptosis (II) (HT29 cells) | viability at 19 µM (HT29 cells; Homo sapiens, HT-29, 3 or 12 h, control around 95.7%, read-out: cell viability (Annexin V-FITC/PI)) [%] | changes in cell cycle, HEK293 (HEK293 [3]) | cytotoxicity at 72 h, 50 µM [4] [%] | concentration at which effects on HEK293 cells were observed (HEK293 [5]) | IC50 (HEK293 [5]) [µM] | melting point [°C] | concentration inducing apoptosis in pancreatic cancer cells (pancreatic cancer cells)
CCCCCCn1cnc2c(-c3ccc(OC(F)(F)F)cc3)nc(N3CCN(c4ccncc4)CC3)nc21 [Compound 4s, 9-Hexyl-2-(4-(pyridin-4-yl)piperazin-1-yl)-6-(4-(trifluoromethoxy)phenyl)-9H-purine] | inhibited Gli-1 expression | 0.95 | induced apoptosis in a dose-dependent manner | 27.5 | totally inhibited the formation of colonies | poor | 64.6% | ~33.8 | did not observe any changes | < 50 | above 50 µM | > 50 | 153 to 155 | –
CS(=O)(=O)c1ccc(C(=O)Nc2ccc(Cl)c(-c3ccccn3)c2)c(Cl)c1 [Vismodegib, reference compound] | – | – | – | – | less effective than 4s | – | no statistically significant differences | – | – | < 50 | – | > 50 | – | greater than 100 µM
